Laboratory results as given in ChEMBL document CHEMBL1201862, “PubChem BioAssay data set” (2004).
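Protocol summary: plate cells (96-well), add compound at 5 concentrations, incubate 48 h, interpolate endpoints linearly. GI50: concentration for 50% inhibition of growth.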 Calls of active or inactive are those of the source. No stated cut-off is given here; in the data, active = GI50 up to about 1.1 µM and inactive = higher.

Key:
Assay in all cases: NCI anticancer screen, dose series, 48 h
SR = test system: SR
RPMI-8226 = test system: RPMI-8226
UACC-257 = test system: UACC-257
SF-268 = test system: SF-268
CAKI-1 = test system: CAKI-1
OVCAR-3 = test system: OVCAR-3
SK-MEL-28 = test system: SK-MEL-28
ACHN = test system: ACHN
DMS-273 = test system: DMS-273
MDA-MB-435 = test system: MDA-MB-435
OVCAR-8 = test system: OVCAR-8
Malme-3M = test system: Malme-3M
HL-60 = test system: HL-60
NCI-H460 = test system: NCI-H460
Hs-578T = test system: Hs-578T
HOP-62 = test system: HOP-62
M14 = test system: M14
NCI-H23 = test system: NCI-H23
SN12C = test system: SN12C
SK-MEL-2 = test system: SK-MEL-2
NCI/ADR-RES = test system: NCI/ADR-RES
HCT-116 = test system: HCT-116
K562 = test system: K562
A498 = test system: A498
NCI-H522 = test system: NCI-H522
U-251 = test system: U-251
NCI-H226 = test system: NCI-H226
SNB-75 = test system: SNB-75
SW-620 = test system: SW-620
OVCAR-4 = test system: OVCAR-4
SNB-19 = test system: SNB-19
786-0 = test system: 786-0
UO-31 = test system: UO-31
XF498 = test system: XF498
KM12 = test system: KM12
LXFL 529 = test system: LXFL 529
HT-29 = test system: HT-29
SF-539 = test system: SF-539
HCC 2998 = test system: HCC 2998
KM-20L2 = test system: KM-20L2
MOLT-4 = test system: MOLT-4
SNB-78 = test system: SNB-78
LOX IMVI = test system: LOX IMVI
RXF 393 = test system: RXF 393
MDA-N = test system: MDA-N
M19-MEL = test system: M19-MEL
A549 = test system: A549
OVCAR-5 = test system: OVCAR-5
SK-OV-3 = test system: SK-OV-3
HOP-92 = test system: HOP-92
UACC-62 = test system: UACC-62
SF-295 = test system: SF-295
SK-MEL-5 = test system: SK-MEL-5
T47D = test system: T47D
MDA-MB-231 = test system: MDA-MB-231
DLD-1 = test system: DLD-1
MCF7 = test system: MCF7
TK-10 = test system: TK-10
HCT-15 = test system: HCT-15
DMS-114 = test system: DMS-114
HOP-18 = test system: HOP-18
IGROV-1 = test system: IGROV-1
EKVX = test system: EKVX
COLO 205 = test system: COLO 205
PC-3 = test system: PC-3

In the case of `CN(C)CC1CCC(CN(C)C)C1=O` (stereo not given), the GI50 (SR) is reported as 2.6 µM (inactive), the GI50 (RPMI-8226) is reported as 0.541 µM (active) and the GI50 (UACC-257) is reported as 8.34 µM (inactive). For the same compound, the GI50 (SF-268) was 19.5 µM (inactive), the GI50 (CAKI-1) was 0.736 µM (active) and the GI50 (OVCAR-3) was 3.81 µM (inactive). The GI50 (SK-MEL-28) was 8.65 µM (inactive), the GI50 (ACHN) was 4.7 µM (inactive) and the GI50 (DMS-273) was 17.1 µM (inactive). For the same compound, the GI50 (MDA-MB-435) was 20 µM (inactive), the GI50 (OVCAR-8) was 3.31 µM (inactive) and the GI50 (Malme-3M) was 1.73 µM (inactive). The GI50 (HL-60) was 0.294 µM (active), the GI50 (NCI-H460) was 20.8 µM (inactive) and the GI50 (Hs-578T) was 3.06 µM (inactive). The GI50 (HOP-62) was > 52.5 µM (inactive), the GI50 (M14) was 2.91 µM (inactive) and the GI50 (NCI-H23) was 4.05 µM (inactive). The GI50 (SN12C) was 6.89 µM (inactive), the GI50 (SK-MEL-2) was 14.1 µM (inactive) and the GI50 (NCI/ADR-RES) was 23 µM (inactive). The GI50 (HCT-116) was 2.27 µM (inactive), the GI50 (K562) was 0.418 µM (active) and the GI50 (A498) was 25.4 µM (inactive). The GI50 (NCI-H522) was 0.114 µM (active), the GI50 (U-251) was 24.3 µM (inactive) and the GI50 (NCI-H226) was 19.7 µM (inactive). The GI50 (SNB-75) was 20.7 µM (inactive), the GI50 (SW-620) was 0.873 µM (active) and the GI50 (OVCAR-4) was 5.32 µM (inactive). The GI50 (SNB-19) was > 100 µM (inactive), the GI50 (786-0) was 1.93 µM (inactive) and the GI50 (UO-31) was 7.67 µM (inactive). For the same compound, the GI50 (XF498) was 5.69 µM (inactive), the GI50 (KM12) was 10.3 µM (inactive) and the GI50 (LXFL 529) was 1.47 µM (inactive). The GI50 (HT-29) was 6.64 µM (inactive), the GI50 (SF-539) was 18.4 µM (inactive) and the GI50 (HCC 2998) was 18 µM (inactive). For the same compound, the GI50 (KM-20L2) was 17.4 µM (inactive), the GI50 (MOLT-4) was 0.594 µM (active) and the GI50 (SNB-78) was 5.83 µM (inactive). The GI50 (LOX IMVI) was 4.54 µM (inactive), the GI50 (RXF 393) was 4.19 µM (inactive) and the GI50 (MDA-N) was 2.01 µM (inactive). For the same compound, the GI50 (M19-MEL) was 3.43 µM (inactive), the GI50 (A549) was 18.7 µM (inactive) and the GI50 (OVCAR-5) was 9.73 µM (inactive). The GI50 (SK-OV-3) was 16.8 µM (inactive), the GI50 (HOP-92) was 2.24 µM (inactive) and the GI50 (UACC-62) was 13.9 µM (inactive). For the same compound, the GI50 (SF-295) was 18.3 µM (inactive), the GI50 (SK-MEL-5) was 8.26 µM (inactive) and the GI50 (T47D) was 1.39 µM (inactive). For the same compound, the GI50 (MDA-MB-231) was 2.07 µM (inactive), the GI50 (DLD-1) was 2.05 µM (inactive) and the GI50 (MCF7) was 0.458 µM (active). For the same compound, the GI50 (TK-10) was 14.7 µM (inactive), the GI50 (HCT-15) was 1.43 µM and the GI50 (DMS-114) was 5.92 µM (inactive). For the same compound, the GI50 (HOP-18) was 18.8 µM (inactive), the GI50 (IGROV-1) was 7.94 µM (inactive) and the GI50 (EKVX) was 4.53 µM (inactive). For the same compound, the GI50 (COLO 205) was 0.608 µM (active) and the GI50 (PC-3) was 1.98 µM (inactive).
